Measured values taken from article PMC7366380, “Discovery of a Potent and Selective Covalent Inhibitor and Activity-Based Probe for the Deubiquitylating Enzyme UCHL1, with Antifibrotic Activity” (Journal of the American Chemical Society, 2020).
Entries after “also recorded” stand apart in the source; their conditions may differ.

How the values were obtained:
UCHL1 [1] = target: T1, UCHL1 (Homo sapiens, UniProt P09936); assay: Competitive ABPP against ABP 2 in HEK293 cells, in-gel fluorescence and pulldown/UCHL1 immunoblot; format: cell-based; set-up: rapidly targets endogenous UCHL1 in cells; endogenous in cells; host or cells: HEK293; details: HEK293, compound 1 h, then 2 (20 nM) 10 min
T1 sequence (P09936 1-223): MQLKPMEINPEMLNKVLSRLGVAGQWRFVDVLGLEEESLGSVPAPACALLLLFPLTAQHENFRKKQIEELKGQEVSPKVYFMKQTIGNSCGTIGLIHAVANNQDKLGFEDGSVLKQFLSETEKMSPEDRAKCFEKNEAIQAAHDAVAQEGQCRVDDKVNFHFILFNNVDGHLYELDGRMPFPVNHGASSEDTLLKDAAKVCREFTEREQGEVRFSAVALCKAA

UCHL1 [2] = target: T1, UCHL1; assay: UCHL1 covalent adduct site identification (tryptic digest, nanoLC-MS/MS, PEAKS); format: binding; set-up: (residues 1-223, Uniprot P09936); GST (N, cleaved yes); made in house; host or cells: E. coli Rosetta 2(DE3), pGEX-6P-1; details: for site of UCHL1 modification: UCHL1 5 μM, compound 13 μM, 1 h, tryptic digest
Description: b) 2 modification: 96% peptide sequence coverage
Figure S9. Identification of modification sites by nanoLC-MS/MS.
Recombinant UCHL1 (5 µM) was incubated with compound 1 or 2 (13 µM) for 1 h at room temperature. The labeled protein was digested with trypsin and analyzed by nanoLC-MS/MS.
The data was processed in PEAKS 8.0. 82% and 96% of UCHL1 peptide sequence coverage for (a) 1, or (b) 2 modification, respectively. The high confidence modification of compound 1 […]
Statistical data and peptide lists from PEAKS are detailed in Supplementary Data S1. […]
values were plotted against compound concentration to afford the apparent second order rate constant for inhibition, ka/I. The absolute value of the second order rate constant kobs/I was […]
Reversible inhibition assay: Jump dilution assays were performed by incubating UCHL1 […]
negative controls (iodoacetamide (IAA) 10 mM) for 30 min at room temperature. The reaction […]
intensity read immediately for 1 h.
UCHL1 covalent adduct determination […]
pH 7.5) was incubated with compound 1, 2 (2.5 equiv.) or DMSO for 1 h at room temperature.
(§1) The excess ligand was removed by washing with buffer D in an Amicon® Ultra MWCO 10 kDa centrifugation spin filter three times. The protein-adducts were desalted using 3× SDB-XC polystyrene-divinylbenzene copolymer extraction disks, following published methods.5 Samples were eluted with 50% (v/v) MeCN 0.5% (v/v) formic acid in LC-MS grade water and analyzed by LC-ESI (ACQUITY UPLC H-Class PLUS instrument (Waters)) using an ACQUITY UPLC BEH C4 column (Waters) coupled with Waters LCT Premier MS detector.
UCHL1 covalent adduct site identification
Compound-protein adduct samples were prepared as described above and digested with trypsin (Promega, 1:50 trypsin:UCHL1 ratio) at 37 °C, overnight. […]
(§2) The MS data was analyzed by PEAKS Studio 8.5 (Bioinformatics Solutions Inc.). […]
(§3) Homogeneous time resolved fluorescence (HTRF) assay […]
(§4) BME) and incubated for 30 min at room temperature. […] The plates were sealed and incubated overnight at 4 °C then read using a PHERAstar (BMG), and the Delta F calculated: […]

UCHL1 [3] = target: T1, UCHL1; assay: Reversible inhibition (jump dilution) assay with Ub-AMC; format: biochemical; set-up: rapidly targets endogenous UCHL1 in cells; endogenous in cells; host or cells: HEK293; details: UCHL1 300 nM, compound 400 nM, 30 min, 100x dilution
Description: Figure S2. UCHL1 kinetics
(a) Kinetic analysis of UCHL1 (3 nM)-catalyzed cleavage of varied concentrations of Ub-AMC.
(b) Non-linear fit of Michaelis –Menten equation to initial reaction velocities versus Ub-AMC […]
(c) Apparent rate of inhibition (ka) of compound 1 and 2 at varying concentrations. Ub-AMC (130 nM) fluorescence intensity was measured in the presence of UCHL1 (3 nM). The apparent rate constant for inhibition, ka/I was determined by linear regression, giving the absolute value of the rate constant kobs/I values for […]
13000) M-1s-1, respectively. […]
intensity read immediately for 1 h. […]
as §1, with “detector. […]” for “detector.”
as §2, §3, §4

UCHL1 [4] = target: T1, UCHL1; details: HEK293T, 1 h treatment, immunoblot

N#CN1CCC[C@H]1C(=O)N1CCc2c(-c3c[nH]c4ncccc34)cccc21 [Compound 1]
competition for UCHL1 labeling by ABP 2 (immunoblot) (UCHL1 [1]): dose-dependent UCHL1 labeling reduction | site of UCHL1 modification (UCHL1 [2]): catalytic cysteine 90; also recorded: catalytic cysteine (Cys90) | reversibility of inhibition after dilution (UCHL1 [3]): slowly reversible | in-cell competition for HA-Ub-VME labeling of UCHL1 (UCHL1 [4]): concentration-dependent competition

C#Cc1cnc2[nH]cc(-c3cccc4c3CCN4C(=O)[C@@H]3CCCN3C#N)c2c1 [Compound 2]
site of UCHL1 modification (UCHL1 [2]): catalytic cysteine 90; also recorded: catalytic cysteine (Cys90) | Peptide carrying the compound 2 modification (C, +381.16) (UCHL1 [2]; recombinant UCHL1 (P09936) treated with compound 2, tryptic digest, PEAKS, PTM code n = Compound 2 modification (C)): QTIGNSC(+381.16)GTIGLIHAVANNQDKLGFEDGSVLK; also recorded: QTIGNSC(+381.16)GTIGLIHAVANNQDK; also recorded: QTIGNSC(+381.16)GTIGLIHAVANNQDKLGFEDGSVLKQFLSETEK | reversibility of inhibition after dilution (UCHL1 [3]): slowly reversible | in-cell competition for HA-Ub-VME labeling of UCHL1 (UCHL1 [4]): concentration-dependent competition

N#CN1CCC[C@@H]1C(=O)N1CCc2c(-c3c[nH]c4ncccc34)cccc21 [Compound 3]
competition for UCHL1 labeling by ABP 2 (immunoblot) (UCHL1 [1]): no competition
